Results from patent US9212204B2, “Treatment of rett syndrome using glycyl-L-2-methylprolyl-L-glutamic acid” (priority 2011, dated 2015).
Non-standard residues stand in square brackets, D forms with d. Residues, ends and D or L forms follow the SMILES beside them. αMeP = C[C@@]1(C(=O)O)CCCN1

System: layer 5 cortical neurons of MeCP2-/y mice
Test: Whole-cell recordings of spontaneous EPSCs in acute brain slices
Format: in vivo, mouse
Conditions: 20 mg/kg i.p. daily P15 to P28-P32; vs MeCP2-/y mice treated with vehicle
Experimental: For the survival measurements, the nocturnal activity analysis and the immunoblot analysis, G-2-MePE (synthesised Albany Molecular Research Inc. (Albany, N.Y.) and supplied by Neuren Pharmaceuticals Limited) is administered daily via intra-peritoneal injections (20 mg/kg, vehicle=saline, 0.01% BSA). The treatment starts at PI 5 and is maintained throughout the course of the experiments. For intracellular physiology experiments, the mice are injected daily with G-2-MePE (20 mg/kg body weight, vehicle=saline, 0.01% BSA) for 2 weeks, from P15 to P28-P32 when they are used for acute slice preparation. For optical imaging experiments, mice are injected with G-2-MePE (20 mg/kg body weight, vehicle=saline, 0.01% BSA) daily from the day of the lid suture to the day of imaging. […]
Borosilicate pipettes (3-5 MΩ, WP1) are pulled using a Sutter P-80 puller (Sutter Instruments). Cells are visualized with an Achroplan 40× water-immersion lens with infrared-DIC optics (Zeiss) and detected with an infrared camera (Hamamatsu) projecting to a video monitor. […] Then in current clamp ˜10 pulses (500 ms, 40-140 pA at 10 pA increments), are applied to quantify evoked firing rates and cellular excitability. […] Analysis is performed using a custom software package written in Matlab, with all events detected according to automated thresholds and blindly verified for each event individually by the experimenter. […]

In the case of `C[C@@]1(C(=O)N[C@@H](CCC(=O)O)C(=O)O)CCCN1C(=O)CN` [Example G-2-MePE, Glycyl-L-2-methylprolyl-L-glutamic acid] (H-Gly-[αMeP]-Glu-OH), the “spontaneous EPSC amplitude” value is reported as “significantly larger”.
